One series concerns the target human albumin (HSA) (Homo sapiens (Human), UniProt P02768). Briefly: HSA binding analysis using a chiral HSA column. Type of series: in vitro ADME. The source says: The test system used in this analysis was an HSA chiral column.
The relationship between the retention time (Tr) and percentage of albumin binding (AB %) depended on the dead time (TO) and the capacity factor (k′): AB%=[k′/(k′+1)]*100
HSA binding was classified as follows:
75%≦AB<90%: Moderate binding

Series [1] deals with Staphylococcus aureus NRS269. Kind of series: MIC determination using agar dilution method. In kind it is cell-based. To be noted: MRSA / NRS 269, read-out: MIC (μg/ml) NRS269. The method, then:
(§1) Antibacterial activity was determined on strains from Mutabilis internal collection.
(§2) This protocol is compliant with Clinical Laboratory Standards Institute (CLSI) methodology as described in M7-A7 document of the CLSI. The compound to be tested is incorporated into Mueller-Hinton Agar medium (Fluka, Reference 70191) at one concentration per plate according to a geometric series of reason 2. Plates are inoculated with mid-log phase bacteria (inoculum=1×10^4 cfu/spot) and incubated overnight at 35° C. […] All manipulations, but compound handling (in pure DMSO), are performed under sterile conditions. The final DMSO concentration of DMSO in the plates is 2%. Vancomycin is used as reference.
In general terms: In agar dilution, organisms are placed on agar that contains the substance at set levels.

Series [2] relates to Staphylococcus aureus NRS100. Briefly: MIC determination using agar dilution method. In kind it is cell-based. To be noted: MRSA / NRS 100, read-out: MIC (μg/ml) NRS100. The method, then:
as §1, §2

The test system of series [3] is Staphylococcus aureus NRS383. Briefly: MIC determination using agar dilution method. In kind it is cell-based. The note with it: MRSA / NRS 383, read-out: MIC (μg/ml) NRS383. The method, then: as §1, §2
Series [4] deals with Staphylococcus aureus NRS482. Briefly: MIC determination using agar dilution method. The note with it: MRSA / NRS 482, read-out: MIC (μg/ml) NRS482. In kind it is cell-based. The method, then:
as §1, §2

Series [5] concerns Staphylococcus aureus NRS385. Kind of series: MIC determination using agar dilution method. Type of series: cell-based. To be noted: MRSA / NRS 385, read-out: MIC (μg/ml) NRS385. The method, then: as §1, §2
Series [6] has as its system Staphylococcus aureus NRS130. Briefly: MIC determination using agar dilution method. In kind it is cell-based. The note with it: MSSA / NRS 130, read-out: MIC (μg/ml) NRS130. The method, then: as §1, §2
The test system of series [7] is Staphylococcus aureus NRS384. Kind of series: MIC determination using agar dilution method. In kind it is cell-based. The note with it: MRSA / NRS 384, read-out: MIC (μg/ml) NRS384. The method, then:
as §1, §2

Series [8] concerns Staphylococcus aureus NRS483. Kind of series: MIC determination using agar dilution method. In kind it is cell-based. The note with it: MRSA / NRS 483, read-out: MIC (μg/ml) NRS483. The method, then:
as §1, §2

In series [9] the test system is Staphylococcus aureus NRS382. Briefly: MIC determination using agar dilution method. The note with it: MRSA / NRS 382, read-out: MIC (μg/ml) NRS382. In kind it is cell-based. The method, then:
as §1, §2

Series [10] relates to Staphylococcus aureus NRS119. Kind of series: MIC determination using agar dilution method. In kind it is cell-based. The note with it: MRSA / NRS 119, read-out: MIC (μg/ml) NRS119. The method, then: as §1, §2
Series [11] relates to Staphylococcus aureus NRS120. Kind of series: MIC determination using agar dilution method. In kind it is cell-based. The note with it: MRSA / NRS 120, read-out: MIC (μg/ml) NRS120. The method, then:
as §1, §2

Series [12] concerns Staphylococcus aureus NRS127. Kind of series: MIC determination using agar dilution method. In kind it is cell-based. The note with it: MRSA / NRS 127, read-out: MIC (μg/ml) NRS127. The method, then:
as §1, §2

Series [13] concerns Staphylococcus aureus NRS121. Briefly: MIC determination using agar dilution method. In kind it is cell-based. To be noted: MRSA / NRS 121, read-out: MIC (μg/ml) NRS121. The method, then: as §1, §2
For series [14], the system named is Staphylococcus aureus NRS484. Kind of series: MIC determination using agar dilution method. The note with it: MRSA / NRS 484, read-out: MIC (μg/ml) NRS484. In kind it is cell-based. The method, then: as §1, §2
Series [15] deals with Staphylococcus aureus NRS192. Briefly: MIC determination using agar dilution method. In kind it is cell-based. The note with it: MRSA / NRS 192, read-out: MIC (μg/ml) NRS192. The method, then:
as §1, §2

The subject of series [16] is Staphylococcus aureus NRS22. Kind of series: MIC determination using agar dilution method. The note with it: MRSA / NRS 22, read-out: MIC (μg/ml) NRS22. In kind it is cell-based. The method, then:
as §1, §2

Series [17] has as its system Staphylococcus aureus NRS386. Kind of series: MIC determination using agar dilution method. Type of series: cell-based. To be noted: MRSA / NRS 386, read-out: MIC (μg/ml) NRS386. The method, then: as §1, §2
For series [18], the system named is Staphylococcus aureus NRS123. Kind of series: MIC determination using agar dilution method. Type of series: cell-based. The note with it: MRSA / NRS 123, read-out: MIC (μg/ml) NRS123. The method, then:
as §1, §2

In brackets after ≈: the same amount, converted by molar mass.

Chain of human albumin (HSA) (P02768 25-609): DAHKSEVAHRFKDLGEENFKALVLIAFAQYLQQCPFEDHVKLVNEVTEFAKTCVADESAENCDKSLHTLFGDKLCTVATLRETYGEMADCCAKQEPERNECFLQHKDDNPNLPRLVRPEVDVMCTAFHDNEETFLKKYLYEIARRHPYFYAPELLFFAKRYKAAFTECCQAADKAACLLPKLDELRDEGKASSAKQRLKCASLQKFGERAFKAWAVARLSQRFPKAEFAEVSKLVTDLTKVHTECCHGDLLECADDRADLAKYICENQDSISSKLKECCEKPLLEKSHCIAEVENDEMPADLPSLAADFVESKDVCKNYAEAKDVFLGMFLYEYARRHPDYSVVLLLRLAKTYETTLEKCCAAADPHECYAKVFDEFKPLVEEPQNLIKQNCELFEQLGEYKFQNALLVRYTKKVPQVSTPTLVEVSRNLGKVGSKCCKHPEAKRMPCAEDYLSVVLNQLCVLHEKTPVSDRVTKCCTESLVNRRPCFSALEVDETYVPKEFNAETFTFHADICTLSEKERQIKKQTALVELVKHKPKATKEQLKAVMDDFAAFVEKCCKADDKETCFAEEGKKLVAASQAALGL

For `O=C1CCc2cc(/C=C/C(=O)N3CC(OCc4cccs4)C3)cnc2N1` [Example 12, 6-{(1E)-3-Oxo-3-[3-(2-thienylmethoxy)azetidin-1-yl]prop-1-en-1-yl}-3,4-dihydro-1,8-naphthyridin-2(1H)-one], the “HSA Binding (%)” value on human albumin (HSA) (AB%=[k′/(k′+1)]*100, chiral HSA column, pH 7.0) came to 45.2%. The “k′” value on human albumin (HSA) (capacity factor, k′=(Tr−T0)/T0) was 0.826. For the same molecule, the “Conclusion (HSA binding class)” value on human albumin (HSA) (chiral HSA column) is given as “Low binding (AB<75%: Low binding)”. Moreover, at human albumin (HSA) (retention time on chiral HSA column, pH 7.0, 37° C.), the “Tr” value is recorded as 1.410 min. In addition, the “affinity in vitro to human albumin” value at human albumin (HSA) (text summary of Table 7) is recorded as “low affinity”. Also, the MIC in series [1] was determined as 4 µg/mL (≈ 10.8 µM); in series [2] it was 2 µg/mL (≈ 5.41 µM); in series [3] it was 4 µg/mL (≈ 10.8 µM); in series [4] it was 4 µg/mL (≈ 10.8 µM); in series [5], 2 µg/mL (≈ 5.41 µM); in [6], 2 µg/mL (≈ 5.41 µM). Also, the MIC in [7] was found to be 4 µg/mL (≈ 10.8 µM); in series [8], 4 µg/mL (≈ 10.8 µM); in series [9] it was 4 µg/mL (≈ 10.8 µM); in series [10], 2 µg/mL (≈ 5.41 µM); in [11], 2 µg/mL (≈ 5.41 µM); in [12], 2 µg/mL (≈ 5.41 µM). Further, the MIC in [13] was 2 µg/mL (≈ 5.41 µM); in series [14] it was 4 µg/mL (≈ 10.8 µM); in series [15], 4 µg/mL (≈ 10.8 µM); in series [16], 4 µg/mL (≈ 10.8 µM); in [17] it was 4 µg/mL (≈ 10.8 µM); in series [18], 2 µg/mL (≈ 5.41 µM).
